Results on 39 compounds are retold here after US20070043024A1, “Azacyclic compounds as inhibitors of sensory neurone specific channels” (priority 2003, published 2007).

pIC50: −log10 of the molar value. Where two headings read alike, the source gives them in different places.

This test deals with T1, human Nav1.8 (hNav1.8) ion channel (Homo sapiens, UniProt Q9Y5Y9).
T1 construct: expressed in transfected cells
Briefly: Inhibition of human Nav1.8 stably expressed in SH-SY-5Y cells (membrane potential dye fluorescence assay). Format: cell-based. The conditions noted are these: SH-SY-5Y hNav1.8 cells, inhibition of membrane depolarisation, FLIPR membrane potential dye, 250 nM TTX, test concentration range 100 μM-0.05 μM.

The mark [1] stands for this setting: Table 2 (compound numbers of the list in the description), read-out: IC50.

T1 sequence (Q9Y5Y9 whole entry): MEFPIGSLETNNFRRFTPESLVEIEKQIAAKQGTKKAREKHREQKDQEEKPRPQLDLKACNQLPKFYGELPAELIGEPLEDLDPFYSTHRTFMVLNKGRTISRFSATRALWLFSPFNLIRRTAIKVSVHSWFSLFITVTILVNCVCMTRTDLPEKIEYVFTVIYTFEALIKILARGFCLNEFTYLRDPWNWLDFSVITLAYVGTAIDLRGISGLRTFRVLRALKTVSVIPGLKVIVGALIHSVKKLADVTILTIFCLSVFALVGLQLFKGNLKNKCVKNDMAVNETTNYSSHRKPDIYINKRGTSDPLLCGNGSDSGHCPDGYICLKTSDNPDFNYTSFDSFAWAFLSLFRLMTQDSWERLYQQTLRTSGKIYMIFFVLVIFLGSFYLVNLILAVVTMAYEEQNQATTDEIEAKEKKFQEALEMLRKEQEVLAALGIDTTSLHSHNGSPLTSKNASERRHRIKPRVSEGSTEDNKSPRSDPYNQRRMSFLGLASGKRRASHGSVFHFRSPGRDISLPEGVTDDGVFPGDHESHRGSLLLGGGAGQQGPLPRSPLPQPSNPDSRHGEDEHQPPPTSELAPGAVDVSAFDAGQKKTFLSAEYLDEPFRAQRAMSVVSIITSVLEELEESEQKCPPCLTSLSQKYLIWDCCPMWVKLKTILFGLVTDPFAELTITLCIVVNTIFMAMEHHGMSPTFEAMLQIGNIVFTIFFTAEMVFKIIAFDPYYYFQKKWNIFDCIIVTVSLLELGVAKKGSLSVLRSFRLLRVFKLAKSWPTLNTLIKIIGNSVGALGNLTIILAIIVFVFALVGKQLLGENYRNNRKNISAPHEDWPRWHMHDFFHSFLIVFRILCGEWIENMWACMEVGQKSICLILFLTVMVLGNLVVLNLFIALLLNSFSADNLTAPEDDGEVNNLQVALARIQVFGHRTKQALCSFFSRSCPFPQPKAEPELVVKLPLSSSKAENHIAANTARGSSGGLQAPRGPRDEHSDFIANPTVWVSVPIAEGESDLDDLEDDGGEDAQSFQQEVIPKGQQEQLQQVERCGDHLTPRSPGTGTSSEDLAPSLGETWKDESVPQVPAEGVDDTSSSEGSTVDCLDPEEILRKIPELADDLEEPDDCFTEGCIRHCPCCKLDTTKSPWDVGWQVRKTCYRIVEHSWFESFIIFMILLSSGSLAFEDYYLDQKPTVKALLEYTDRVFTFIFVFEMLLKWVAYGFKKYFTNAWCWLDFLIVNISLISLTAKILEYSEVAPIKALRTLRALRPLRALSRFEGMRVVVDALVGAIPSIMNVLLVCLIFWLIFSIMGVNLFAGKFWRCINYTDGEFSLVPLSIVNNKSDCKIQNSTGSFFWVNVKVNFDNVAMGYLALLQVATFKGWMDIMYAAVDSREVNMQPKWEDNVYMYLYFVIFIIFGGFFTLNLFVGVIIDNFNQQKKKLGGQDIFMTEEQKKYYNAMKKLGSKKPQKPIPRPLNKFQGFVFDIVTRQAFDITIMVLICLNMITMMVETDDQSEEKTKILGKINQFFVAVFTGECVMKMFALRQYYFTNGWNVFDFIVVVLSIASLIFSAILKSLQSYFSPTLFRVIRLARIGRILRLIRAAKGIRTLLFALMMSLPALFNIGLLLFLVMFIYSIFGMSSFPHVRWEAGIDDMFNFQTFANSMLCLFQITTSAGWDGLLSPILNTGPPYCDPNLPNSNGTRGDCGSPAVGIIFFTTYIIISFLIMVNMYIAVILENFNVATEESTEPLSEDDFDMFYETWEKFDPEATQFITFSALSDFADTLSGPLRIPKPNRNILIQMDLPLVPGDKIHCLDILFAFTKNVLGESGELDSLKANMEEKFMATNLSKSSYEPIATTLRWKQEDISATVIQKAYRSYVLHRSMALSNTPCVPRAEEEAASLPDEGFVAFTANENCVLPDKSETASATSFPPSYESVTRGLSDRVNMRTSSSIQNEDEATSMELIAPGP

As for `O=C(NCCN1CCc2cccnc2C1)N1c2ccccc2Oc2ccccc21` [Compound 201, Phenoxazine-10-carboxylic acid [2-(5,8-dihydro-6H-[1,7]naphthyridin-7-yl)-ethyl]-amide], the pIC50 under setting [1] is 5.22. In the case of `COc1cccc2c1CN(CC(=O)NCCCC(c1ccccc1)c1ccccc1)C2` [Compound 82, N-(4,4-diphenyl-butyl)-2-(4-methoxy-1,3-dihydro-isoindol-2-yl)-acetamide], under setting [1], the pIC50 is 5.97. As for `Oc1cccc2c1CN(Cc1cc(C(F)(F)F)cc(C(F)(F)F)c1)CC2` [Example 95, 2-(3,5-Bis-trifluoromethyl-benzyl)-1,2,3,4-tetrahydro-isoquinolin-8-ol], the pIC50 (Table 1, read-out: IC50) was 5.77. Take `O=C(CN1CCc2cccc(O)c2C1)NN(c1ccccc1)c1ccccc1` [Compound 167, (8-Hydroxy-3,4-dihydro-1H-isoquinolin-2-yl)-acetic acid N′,N′-diphenyl-hydrazide]: the pIC50 under setting [1] was 5.35. Consider `COc1cccc2c1CN(CCC(=O)N(Cc1ccccc1)Cc1ccccc1)CC2` [Compound 87, N,N-dibenzyl-3-(8-methoxy-3,4-dihydro-1H-isoquinolin-2-yl)-propionamide], for which, under setting [1], the pIC50 was 6.31. For the compound `COc1ccc2c(c1)CCCN(C(=S)NC(c1ccccc1)c1ccccc1)C2` [Compound 76, 7-methoxy-1,3,4,5-tetrahydro-benzo[c]azepine-2-carbothioic acid benzhydryl-amide], the pIC50 under setting [1] was 4.83. As for `CCOC(=O)C1CN(C(=O)CN2CCc3cccc(OC)c3C2)c2ccccc2O1` (stereo not shown) [Compound 171, 4-[2-(8-Methoxy-3,4-dihydro-1H-isoquinolin-2-yl)-acetyl]-3,4-dihydro-2H-benzo[1,4]oxazine-2-carboxylic acid ethyl ester], the pIC50 under setting [1] is 5.76. For `COc1ccc2c(c1)CN(CC(=O)N(Cc1ccccc1)Cc1ccccc1)CC2` [Example 87, N,N-Dibenzyl-2-(7-methoxy-3,4-dihydro-1H-isoquinolin-2-yl)-acetamide], under “Table 1, read-out: IC50”, the pIC50 is 5.96. For the compound `CSc1ccc2c(c1)N(C(=O)CN1CCc3cccc(O)c3C1)c1ccccc1S2` [Compound 158, 2-(8-Hydroxy-3,4-dihydro-1H-isoquinolin-2-yl)-1-(2-methylsulfanyl-phenothiazin-10-yl)-ethanone], the pIC50 under setting [1] is 5.34. On the same count and under the same terms, under `N#Cc1cccc2c1CN(CC(=O)N1c3ccccc3Oc3ccccc31)C2` [Compound 220, 2-(2-Oxo-2-phenoxazin-10-yl-ethyl)-2,3-dihydro-1H-isoindole-4-carbonitrile] stands 6.10; under `O=C(NCCN1CCc2cccc(O)c2C1)N1c2ccccc2Sc2ccccc21` [Compound 160, Phenothiazine-10-carboxylic acid [2-(8-hydroxy-3,4-dihydro-1H-isoquinolin-2-yl)-ethyl]-amide], 6.02; under `COc1cccc2c1CN(CC(=O)N1c3ccccc3CCc3ccccc31)CC2` [Compound 73, 1-(10,11-dihydro-dibenzo[b,f]azepin-5-yl)-2-(8-methoxy-3,4-dihydro-1H-isoquinolin-2-yl)-ethanone], 5.89. For `Oc1cccc2c1CN(Cc1cc(F)ccc1F)CC2` [Example 92, 2-(2,5-Difluoro-benzyl)-1,2,3,4-tetrahydro-isoquinolin-8-ol], the pIC50 (Table 1, read-out: IC50) was 5.28. As for `COc1cccc2c1CN(CC(=O)N1c3ccccc3[S+]([O-])c3ccccc31)CC2` [Compound 143, 2-(8-Methoxy-3,4-dihydro-1H-isoquinolin-2-yl)-1-(5-oxo-5H-5lambda*4*-phenothiazin-10-yl)-ethanone], the pIC50 under setting [1] is 5.02.

On to `COc1cccc2c1CN(C(C)C(=O)N1c3ccccc3Oc3ccccc31)CC2` (stereo not shown) [Compound 200, 2-(8-Methoxy-3,4-dihydro-1H-isoquinolin-2-yl)-1-phenoxazin-10-yl-propan-1-one], for which the pIC50 under setting [1] was 5.78. Same read-out and setting: under `O=C(CN1CCc2cccnc2C1)N1c2ccccc2Oc2ccccc21` [Compound 173, 2-(5,8-Dihydro-6H-[1,7]naphthyridin-7-yl)-1-phenoxazin-10-yl-ethanone] stands 5.25.

`COc1cccc2c1CN(CCNC(=O)NC(c1ccccc1)c1ccccc1)CC2` [Compound 135, 1-Benzhydryl-3-[2-(8-methoxy-3,4-dihydro-1H-isoquinolin-2-yl)-ethyl]-urea]: the pIC50 under setting [1] is 6.42. For the compound `Oc1cccc2c1CN(Cc1cc(F)cc(F)c1)CC2` [Example 93, 2-(3,5-Difluoro-benzyl)-1,2,3,4-tetrahydro-isoquinolin-8-ol], the pIC50 (Table 1, read-out: IC50) is 5.33. As to `COc1ccc2c(c1)CCCN(CC(=O)N(Cc1ccccc1)Cc1ccccc1)C2` [Compound 86, N,N-dibenzyl-2-(7-methoxy-1,3,4,5-tetrahydro-benzo[c]azepin-2-yl)-acetamide], under setting [1], the pIC50 was 6.31. Same read-out and setting: under `COc1cc2c(cc1OC)CN(CCNC(=O)N1c3ccccc3Sc3ccccc31)CC2` [Compound 161, Phenothiazine-10-carboxylic acid [2-(6,7-dimethoxy-3,4-dihydro-1H-isoquinolin-2-yl)-ethyl]-amide] stands 5.95. In the case of `O=C(CN1CCc2cccc(O)c2C1)N(Cc1ccccc1)Cc1ccccc1` [Example 23, N,N-Dibenzyl-2-(8-hydroxy-3,3-dihydro-1H-isoquinolin-2-yl)-acetamide], the pIC50 (Table 1, read-out: IC50) is 6.59. Take `COc1cc2c(cc1OC)CN(CC(=O)NCC(c1ccccc1)c1ccccc1)CC2` [Compound 126, 2-(6,7-Dimethoxy-3,4-dihydro-1H-isoquinolin-2-yl)-N-(2,2-diphenyl-ethyl)-acetamide]: the pIC50 under setting [1] is 5.71. Take `COc1cccc2c1CN(C(=S)NCC(c1ccccc1)c1ccccc1)CC2` [Example 52, 8-Methoxy-3,4-dihydro-1H-isoquinolin-2-carbothioic acid (2,2-diphenyl-ethyl)-amide]: the pIC50 (Table 1, read-out: IC50) is 5.33. As to `COc1cccc2c1CN(CC(=O)NC1c3ccccc3Oc3ccccc31)CC2` [Compound 180, 2-(8-Methoxy-3,4-dihydro-1H-isoquinolin-2-yl)-N-(9H-xanthen-9-yl)-acetamide], the pIC50 under setting [1] is 5.28. For the compound `COc1cccc2c1CN(CC(=O)N1c3ccccc3OCC1C(C)(C)C)CC2` (stereo not shown) [Compound 206, 1-(3-tert-Butyl-2,3-dihydro-benzo[1,4]oxazin-4-yl)-2-(8-methoxy-3,4-dihydro-1H-isoquinolin-2-yl)-ethanone], the pIC50 under setting [1] is 5.79.

Take `COc1cccc2c1CN(CC(=O)n1c3ccccc3c3ccccc31)CC2` [Compound 204, 1-Carbazol-9-yl-2-(8-methoxy-3,4-dihydro-1H-isoquinolin-2-yl)-ethanone]: the pIC50 under setting [1] is 4.97. On to `O=C(CN1Cc2ccccc2C1)NCC(c1ccccc1)c1ccccc1` [Example 66], for which the pIC50 (Table 1, read-out: IC50) was 5.69 and the pIC50 under setting [1] was 5.69. Take `Cc1cnc(C(C)NC(=O)CN2CCc3cccc(O)c3C2)s1` (stereo not shown) [Example 29, 2-(8-Hydroxy-3,4-dihydro-1H-isoquinolin-2-yl)-N-[1-(5-methyl-thiazol-2-yl)-ethyl]-acetamide]: the pIC50 (IC50, Table 1) is 4.83. For the compound `O=C(CN1CCc2cccc(O)c2C1)Nc1ccccc1Oc1ccccc1` [Compound 185, 2-(8-Hydroxy-3,4-dihydro-1H-isoquinolin-2-yl)-N-(2-phenoxy-phenyl)-acetamide], under setting [1], the pIC50 was 5.73.

Take `O=C(CC(c1ccc(F)cc1)c1ccc(F)cc1)N1CCc2ccccc2C1` [Example 30]: the pIC50 (Table 1, read-out: IC50) was 5.80. Turning to `COc1cccc2c1CN(CC(=O)N(Cc1ccccc1)Cc1ccccc1)CC2` [Compound 79, N,N-dibenzyl-2-(8-methoxy-3,4-dihydro-1H-isoquinolin-2-yl)-acetamide], the pIC50 under setting [1] was 5.99. Same read-out and setting: with `CS(=O)(=O)Nc1cccc2c1CN(CC(=O)NCCCC(c1ccccc1)c1ccccc1)CC2` [Compound 117, N-(4,4-Diphenyl-butyl)-2-(8-methanesulfonylamino-3,4-dihydro-1H-isoquinolin-2-yl)-acetamide] the figure was 5.87; with `COc1cccc2c1CN(CC(=O)NCCCOC(c1ccccc1)c1ccccc1)CC2` [Compound 94, N-(3-Benzhydryloxy-propyl)-2-(8-methoxy-3,4-dihydro-1H-isoquinolin-2-yl)-acetamide], 5.55. The same measure, in the same setting: with `COc1cccc2c1CN(CCC(=O)NCCC(c1ccc(F)cc1)c1ccc(F)cc1)CC2` [Compound 166, N-[3,3-Bis-(4-fluoro-phenyl)-propyl]-3-(8-methoxy-3,4-dihydro-1H-isoquinolin-2-yl)-propionamide] the figure was 6.46. Turning to `COc1ccc(C(CCNC(=O)CN2CCc3cccc(OC)c3C2)c2ccc(OC)cc2)cc1` [Compound 115, N-[3,3-Bis-(4-methoxy-phenyl)-propyl]-2-(8-methoxy-3,4-dihydro-1H-isoquinolin-2-yl)-acetamide], the pIC50 under setting [1] was 5.63. On to `COc1cccc2c1CN(CC(=O)NNC(=O)N(c1ccccc1)c1ccccc1)CC2` [Compound 186, 1-[(8-Methoxy-3,4-dihydro-1H-isoquinolin-2-yl)-acetyl]-4,4-diphenylsemicarbazide], for which the pIC50 under setting [1] was 4.54.

As for `COc1cccc2c1CN(CC(=O)N1c3ccccc3Oc3ccccc31)C2` [Compound 196, 2-(4-Methoxy-1,3-dihydro-isoindol-2-yl)-1-phenoxazin-10-yl-ethanone], the pIC50 under setting [1] is 6.03.

On to `COc1cc2c(cc1OC)CN(CC(=O)N1c3ccccc3Sc3ccc(C(C)=O)cc31)CC2` [Compound 155, 1-(2-Acetyl-phenothiazin-10-yl)-2-(6,7-dimethoxy-3,4-dihydro-1H-isoquinolin-2-yl)-ethanone], for which the pIC50 under setting [1] is 5.20.

For the compound `O=C(CN1CCc2ccccc2C1)NC(c1ccc(F)cc1)c1ccc(F)cc1` [Compound 119, N-[Bis-(4-fluoro-phenyl)-methyl]-2-(3,4-dihydro-1H-isoquinolin-2-yl)-acetamide], the pIC50 under setting [1] was 5.72.

One may read the pIC50 as −log10 of the IC50, conventionally taken in molar units.
